Source: patent publication US20230031406A1, “COMPOUNDS AND COMPOSITIONS FOR TREATING CONDITIONS ASSOCIATED WITH NLRP ACTIVITY” (Novartis AG, priority 2018, published 2023)
Like-named read-outs stand apart in the source and are kept apart here. Blank lines part the entries; values can stand above or below the compound they belong to.

Tested on: PMA-differentiated THP-1 cells
Experiment: IL-1β production in PMA-differentiated THP-1 cells stimulated with gramicidin (hTHP-1 assay containing 2% fetal bovine serum; Procedures 1 and 2)
Type: cell-based, human
Conditions: 2% fetal bovine serum
Procedure: The following protocol is suitable for testing the activity of the compounds disclosed herein. Procedure 1: IL-1β Production in PMA-Differentiated THP-1 Cells Stimulated with Gramicidin.
THP-1 cells were purchased from the American Type Culture Collection and sub-cultured according to instructions from the supplier. Cells were cultured in complete RPMI 1640 (containing 10% heat inactivated FBS, penicillin (100 units/ml) and streptomycin (100 μg/ml)), and maintained in log phase prior to experimental setup. Prior to the experiment, compounds were dissolved in dimethyl sulfoxide (DMSO) to generate a 30 mM stock. The compound stock was first pre-diluted in DMSO to 3, 0.34, 0.042 and 0.0083 mM intermediate concentrations and subsequently spotted using Echo550 liquid handler into an empty 384-well assay plate to achieve desired final concentration (e.g. 100, 33, 11, 3.7, 1.2, 0.41, 0.14, 0.046, 0.015, 0.0051, 0.0017 μM). DMSO was backfilled in the plate to achieve a final DMSO assay concentration of 0.37%. The plate was then sealed and stored at room temperature until required.
THP-1 cells were treated with PMA (Phorbol 12-myristate 13-acetate) (20 ng/ml) for 16-18 hours. On the day of the experiment the media was removed and adherent cells were detached with trypsin for 5 minutes. Cells were then harvested, washed with complete RPMI 1640, spun down, and resuspended in RPMI 1640 (containing 2% heat inactivated FBS, penicillin (100 units/ml) and streptomycin (100 μg/ml). The cells were plated in the 384-well assay plate containing the spotted compounds at a density of 50,000 cells/well (final assay volume 50 μl). Cells were incubated with compounds for 1 hour and then stimulated with gramicidin (5 μM) (Enzo) for 2 hours. Plates were then centrifuged at 340 g for 5 min. Cell free supernatant (40 μL) was collected using a 96—CHannel PlateMaster (Gilson) and the production of IL-1β was evaluated by HTRF (cisbio). The plates were incubated for 18 h at 4° C. and read using the preset HTRF program (donor emission at 620 nm, acceptor emission at 668 nm) of the SpectraMax i3x spectrophotometer (Molecular Devices, software SoftMax 6). A vehicle only control and a dose titration of CRID3 (100-0.0017 μM) were run concurrently with each experiment.
Procedure 2: IL-1β Production in PMA-Differentiated THP-1 Cells Stimulated with Gramicidin.
THP-1 cells were purchased from the American Type Culture Collection and sub-cultured according to instructions from the supplier. Prior to experiments, cells were cultured in complete RPMI 1640 (containing 10% heat inactivated FBS, penicillin (100 units/ml) and streptomycin (100 μg/ml)), and maintained in log phase prior to experimental setup. Prior to the experiment THP-1 were treated with PMA (Phorbol 12-myristate 13-acetate) (20 ng/ml) for 16-18 hours. Compounds were dissolved in dimethyl sulfoxide (DMSO) to generate a 30mM stock. On the day of the experiment the media was removed and adherent cells were detached with trypsin for 5 minutes. Cells were then harvested, washed with complete RPMI 1640, spun down, resuspended in RPMI 1640 (containing 2% heat inactivated FBS, penicillin (100 units/ml) and streptomycin (100 μg/ml). The cells were plated in a 384-well plate at a density of 50,000 cells/well (final assay volume […]). Compounds were first dissolved in assay medium to obtain a 5× top concentration of 500 μM. 10 step dilutions (1:3) were then undertaken in assay medium containing 1.67% DMSO. 5× compound solutions were added to the culture medium to achieve desired final concentration (e.g. 100, 33, 11, 3.7, 1.2, 0.41, 0.14, 0.046, 0.015, 0.0051, 0.0017 μM). Final DMSO concentration was at 0.37%. Cells were incubated with compounds for 1 hour and then stimulated with gramicidin (5 μM) (Enzo) for 2 hours. Plates were then centrifuged at 340 g for 5 min. Cell free supernatant (40 μL) was collected using a 96—CHannel PlateMaster (Gilson) and the production of IL-1β was evaluated by HTRF (cisbio). […]

[1] = Table B2, class symbols, read-out: hTHP-1 IC50
[2] = Homo sapiens, THP-1, Table B2, numeric bounds, read-out: hTHP-1 IC50
[3] = Table B1, class symbols, read-out: Average IC50 of compounds in hTHP-1 assay: hTHP-1 IC50
[4] = Homo sapiens, THP-1, Table B3, hTHP-1 assay, class symbols, read-out: IC50
[5] = Homo sapiens, THP-1, Table B2, class symbols, read-out: hTHP-1 IC50
[6] = Table B3, hTHP-1 assay, class symbols, read-out: IC50
[7] = Table B4, class symbols, read-out: hTHP-1 IC50

IC50 [1]: 0.04 to 0.2 µM
Structure (SMILES): C[C@@H]1CCc2c1nc1c(c2NC(=O)N=S(N)(=O)c2sc(CN(C)C)cc2F)CCC1 (single isomer, unassigned) [Compound 636b, (R) or (S)-5-((Dimethylamino)methyl)-3-fluoro-N′-(((R)-3-methyl-1,2,3,5,6,7-hexahydrodicyclopenta [b,e]pyridin-8-yl)carbamoyl) thiophene-2-sulfonimidamide]

IC50 [2]: > 30 µM
Structure (SMILES): COCc1nc(C(C)(C)O)sc1S(N)(=O)=NC(=O)Nc1c2c(nc3c1CCC3)CCC2 (single isomer, unassigned) [Compound 689a, (S) or (R)-N′-((1,2,3,5,6,7-hexahydrodicyclopenta [b,e]pyridin-8-yl)carbamoyl)-2-(2-hydroxypropan-2-yl)-4-(methoxymethyl) thiazole-5-sulfonimidamide]

IC50 [3]: 1 to 5 µM
Structure (SMILES): CC1CCc2c1nc1c(c2NC(=O)N=S(N)(=O)c2cc(C(C)(C)O)cs2)CCC1 (single isomer, unassigned) [Compound 141a, (S,R/S) or (R,R/S)-4-(2-hydroxypropan-2-yl)-N′-((3-methyl-1,2,3,5,6,7-hexahydro-dicyclopenta[b,e]pyridin-8-yl)carbamoyl)thiophene-2-sulfonimidamide]

IC50 [4]: 1 to 5 µM
Structure (SMILES): NS(=O)(=NC(=O)Nc1c2c(nc3c1CCC31CC1)CCC2)c1ccn(CCO)n1 (stereo not shown) [Example 622, 1-(2-Hydroxyethyl)-N′-((1′,5′,6′,7′-tetrahydro-2′H-spiro[cyclopropane-1,3′-dicyclopenta[b,e]pyridin]-8′-yl)carbamoyl)-1H-pyrazole-3-sulfonimidamide]

IC50 [5]: 1 to 5 µM
Structure (SMILES): NS(=O)(=NC(=O)Nc1c2c(nc3c1CCC31CC1)CCC2)c1cnn(C(F)F)c1 (single isomer, unassigned) [Compound 638a, (R) or (S)-1-(Difluoromethyl)-N′-((1′,5′,6′,7′-tetrahydro-2′H-spiro[cyclopropane-1,3′-dicyclopenta[b,e]pyridin]-8′-yl)carbamoyl)-1H-pyrazole-4-sulfonimidamide]

IC50 [6]: 1 to 5 µM
Structure (SMILES): CCn1cc(F)c(S(N)(=O)=NC(=O)Nc2c(C)c(C(F)(F)F)nc3c2CCC3)n1 (single isomer, unassigned) [Example 650, (S) or (R)-1-ethyl-4-fluoro-N′-((3-methyl-2-(trifluoromethyl)-6,7-dihydro-5H-cyclopenta[b]pyridin-4-yl)carbamoyl)-1H-pyrazole-3-sulfonimidamide]

IC50 (Homo sapiens, THP-1, Table B1, class symbols, read-out: Average IC50 of compounds in hTHP-1 assay: hTHP-1 IC50): 0.2 to 1 µM
Structure (SMILES): CC(C)(O)c1ncc(S(=N)(=O)NC(=O)Nc2c3c(nc4c2CCC4)CCC3)s1 (stereo not shown) [Compound 128, N-((1,2,3,5,6,7-hexahydrodicyclopenta[b,e]pyridin-8-yl)carbamoyl)-2-(2-hydroxypropan-2-yl)thiazole-5-sulfonimidamide]

IC50 [6]: 5 to 30 µM
Structure (SMILES): CCc1c(C(F)(F)F)nc2c(c1NC(=O)N=S(N)(=O)c1nn(C(F)F)cc1F)CCC2 (single isomer, unassigned) [Example 710, (S) or (R)-1-(difluoromethyl)-N′-((3-ethyl-2-(trifluoromethyl)-6,7-dihydro-5H-cyclopenta[b]pyridin-4-yl)carbamoyl)-4-fluoro-1H-pyrazole-3-sulfonimidamide]

IC50 [1]: 5 to 30 µM
Structure (SMILES): CCc1csc(S(N)(=O)=NC(=O)Nc2c3c(nc4c2CC[C@H]4C)CCC3)c1 (single isomer, unassigned) [Compound 721a, (S) or (R)-4-Ethyl-N′-(((R)-3-methyl-1,2,3,5,6,7-hexahydrodicyclopenta[b, e]pyridin-8-yl)carbamoylithiophene-2-sulfonimidamide]

IC50 [2]: > 30 µM
Structure (SMILES): Cc1c(C2(C)CC2)nc2c(c1NC(=O)N=S(N)(=O)c1cc(C(C)(C)O)cs1)CCC2 (single isomer, unassigned) [Compound 669a, (S) or (R)-4-(2-Hydroxypropan-2-yl)-N′-((3-methyl-2-(1-methylcyclopropyl)-6,7-dihydro-5H-cyclopenta[b]pyridin-4-yl)carbamoyl) thiophene-2-sulfonimidamide]

IC50 [4]: 0.04 to 0.2 µM
Structure (SMILES): C[C@](O)(CO)c1cc(F)c(S(N)(=O)=NC(=O)Nc2c3c(nc4c2CCC42CC2)CCC3)s1 (stereo partly drawn) [Example 608, 5-((S)-1,2-dihydroxypropan-2-yl)-3-fluoro-N′-((1′,5′,6′,7′-tetrahydro-2′H-spiro[cyclopropane-1,3′-dicyclopenta[b,e]pyridin]-8′-yl)carbamoyl)thiophene-2-sulfonimidamide]

IC50 [5]: 5 to 30 µM
Structure (SMILES): Cc1cn(C(C)C)nc1S(N)(=O)=NC(=O)Nc1c2c(nc3c1CCC3)CCC2 (single isomer, unassigned) [Compound 687b, (R) or (S)-N′-((1,2,3,5,6,7-hexahydrodicyclopenta [b,e]pyridin-8-yl)carbamoyl)-1-isopropyl-4-methyl-1H-pyrazole-3-sulfonimidamide]

IC50 [4]: 0.04 to 0.2 µM
Structure (SMILES): C[C@H](O)c1csc([S@](N)(=O)=NC(=O)Nc2c3c(nc4c2CC[C@H]4C)CCC3)c1 (single isomer, unassigned) [Example 664, (R)-4-((S) or (R)-1-hydroxyethyl)-N′-(((R)-3-methyl-1,2,3,5,6,7-hexahydrodicyclopenta[b,e]pyridin-8-yl)carbamoyl) thiophene-2-sulfonimidamide]

IC50 [7]: 1 to 5 µM
Structure (SMILES): CC1(C)CCc2c1nc1c(c2NC(=O)N=S(N)(=O)c2sc(C(O)(CO)CO)nc2CO)CCC1 (single isomer, unassigned) [Example 778, (S) or (R)-N′-((3,3-dimethyl-1,2,3,5,6,7-hexahydrodicyclopenta [b,e]pyridin-8-yl)carbamoyl)-4-(hydroxymethyl)-2-(1,2,3-trihydroxypropan-2-yl)-thiazole-5-sulfonimidamide]

IC50 [7]: 5 to 30 µM
Structure (SMILES): Cc1c(C(F)(F)F)nc(C(F)(F)F)c(C)c1NC(=O)N=S(N)(=O)c1cc(C(C)(C)O)cs1 (single isomer, unassigned) [Example 756, (S) or (R)-N′-((3,5-dimethyl-2,6-bis(trifluoromethyl)pyridin-4-yl)carbamoyl)-4-(2-hydroxypropan-2-yl)thiophene-2-sulfonimidamide]

IC50 [1]: 0.2 to 1 µM
Structure (SMILES): Cc1c(C(F)(F)F)nc2c(c1NC(=O)N=S(N)(=O)c1cnc(C(C)(O)CO)s1)CCC2 (single isomer, unassigned) [Compound 605c]

IC50 [3]: 5 to 30 µM
Structure (SMILES): CC(C)(O)c1nc(CO)c(S(N)(=O)=NC(=O)Nc2c3c(nc4c2CCC4)CCC3)s1 (single isomer, unassigned) [Compound 150a, (S) or (R)-N′-((1,2,3,5,6,7-hexahydrodicyclo-penta[b,e]pyridin-8-yl)carbamoyl)-4-(hydroxymethyl)-2-(2-hydroxypropan-2-yl)thiazole-5-sulfonimidamide]

IC50 [2]: > 30 µM
Structure (SMILES): CCOC(=O)c1nc2c(c(NC(=O)N=S(N)(=O)c3cnc(C(C)(C)O)s3)c1C)CCC2 (stereo not shown) [Compound 706]

IC50 [1]: 1 to 5 µM
Structure (SMILES): CCc1c(C2CC2)nc2c(c1NC(=O)N=S(N)(=O)c1cc(C(C)(C)O)cs1)CCC2 (single isomer, unassigned) [Compound 181a, (S) or (R)-N′-((2-cyclopropyl-3-ethyl-6,7-dihydro-5H-cyclopenta[b]pyridin-4-yl)carbamoyl)-4-(2-hydroxypropan-2-yl)thiophene-2-sulfonimidamide]
